Measured values published in patent EP1650209A1, “Griseusin derivatives and their use as antitumor agents” (Oncotest GmbH, priority 2004, dated 2006).
Values after ≈ are worked out from the molar mass of the structure shown.

Legend:
Experiment in all cases: Clonogenic assay, colony formation of tumor stem cells from xenografts
Type in all cases: cell-based, human
[1] = tested on: GXF 251; settings: Stomach, xenograft GXF 251, colony formation
Experimental: (§1) Using various human cancer xenografts in vitro, the concentrations of compound B which inhibit formation of tumor colonies of tumor stem cells by 50% (IC50) and 70% (IC70) are determined in a clonogenic assay. Specifically, each solid tumor of bladder cancer (BXF 1036 and BXF 1299), cervical cancer (CEXF 633 and CEXF 773), colic cancer (CXF 1103, CXF 158, CXF 1729, CXF 264 and CXF 280), gastric cancer (GXF 251 and GXF 97), head and neck cancer (HNXF 536), liver cancer (LIXF 575), non small cell lung cancer comprising adeno, squamous epithelium and large cell carcinoma (LXFA 1012, LXFA 289, LXFA 297, LXFA 526, LXFA 592, LXFA 629, LXFA 677, LXFE 409, LXFL 1072, LXFL 430LX and LXFL 529), small cell lung cancer (LXFS 650), mammary cancer (MAXF 1162, MAXF 1384, MAXF 401, MAXF 449, MAXF 574, MAXF 583, MAXF 713 and MAXF 857), melanoma (MEXF 1341, MEXF 462, MEXF 535 and MEXF 989), ovary cancer (OVXF 899), pancreatic cancer (PAXF 546 and PAXF 736), prostate cancer (DU-145 and PC3M), pleuramesothelioma (PXF 1752), renal cancer (RXF 1220, RXF 1393, RXF 393, RXF 631 and RXF 944LX), and sarcoma (SXF 1301 and SXF 463) engrafted on RPMI nu/nu thymus aplastic nude mice were explanted, disaggregated by mincing and enzymatic digestion for 50 minutes using 125 U/mL DNAse I, 41 U/mL collagenase IV, 100 U/ml hyaluronidase III, and 1 U/mL dispase I, and passed through sieves of 200 µm and 50 µm mesh size and washed twice with sterile PBS-buffer to remove cell aggregated from single cells. The clonogenic assay was performed in a 24 multiwell format. Each of the resulting single cell suspensions was added at a density of 2·10^4 to 6·10^4 cells per well to 0.2 ml of Iscove's Modified Dulbecco's Medium (IMDM) containing 20% fetal calf serum and 0.01% gentamicin supplemented with 0.4% (w/v) agar, and plated onto a bottom layer consisting of the same culture medium containing 0.75% (w/v) agar. After 24 hours IMDM containing 20% fetal calf serum and 0.01 % gentamicin, together with a test compound, was added there to. Then, the plate was incubated at 37°C for 10 to 20 days in a humidified atmosphere of air containing 7.5% CO2. Within this period, in vitro tumor growth led to the formation of colonies with a diameter of > 50µm. Colony counts were performed with an automatic image analysis system (OMNICON 3600). 24 hours prior to evaluation, vital colonies were stained with a vital staining dye. Therefore, 100 µl of a sterile aqueous solution of 2-(4-iodophenyl)-3-(4-nitrophenyl)-5-phenyltetrazolium chloride (1 mg/ml) were added to each well of the plate, and plates were incubated for 24 hours at 37°C in a humidified atmosphere of air containing 7.5% CO2. Inhibition of colony formation was expressed as test versus untreated control (T/C-value [%]). IC50 and IC70 values were determined by plotting compound concentration versus cell viability. Table 3: Inhibition of Colony Formation of Tumor Stem Cells by griseusin derivative B

[2] = tested on: LIXF 575; settings: Liver, xenograft LIXF 575, colony formation
Experimental: as §1

[3] = tested on: PAXF 546; settings: Pancreas, xenograft PAXF 546, colony formation
Experimental: as §1

[4] = tested on: LXFA 629; settings: Lung, non small cell, xenograft LXFA 629, colony formation
Experimental: as §1

[5] = tested on: CXF 158; settings: Colon, xenograft CXF 158, colony formation
Experimental: as §1

[6] = tested on: MAXF 713; settings: Breast, xenograft MAXF 713, colony formation
Experimental: as §1

[7] = tested on: LXFL 430LX; settings: Lung, non small cell, xenograft LXFL 430LX
Experimental: as §1

[8] = tested on: RXF 1220; settings: Kidney, xenograft RXF 1220, colony formation
Experimental: as §1

[9] = tested on: CXF 1103; settings: Colon, xenograft CXF 1103, colony formation
Experimental: as §1

[10] = tested on: OVXF 899; settings: Ovary, xenograft OVXF 899, colony formation
Experimental: as §1

[11] = tested on: LXFA 677; settings: Lung, non small cell, xenograft LXFA 677, colony formation
Experimental: as §1

[12] = tested on: MAXF 1162; settings: Breast, xenograft MAXF 1162, colony formation
Experimental: as §1

[13] = tested on: MAXF 1384; settings: Breast, xenograft MAXF 1384, colony formation
Experimental: as §1

C[C@@H]1CC(=O)[C@@H](O)[C@]2(O1)O[C@@H]1CC(=O)O[C@@H]1C1=C2C(=O)c2c(O)cccc2C1=O [Compound B, 4'-dehydro-deacetylgriseusin A]
IC50 [1]: 0.333 µg/mL (≈ 0.832 µM)
IC70 [1]: 0.677 µg/mL (≈ 1.69 µM)
IC50 [2]: 0.616 µg/mL (≈ 1.54 µM)
IC70 [2]: 0.764 µg/mL (≈ 1.91 µM)
IC50 [3]: 0.168 µg/mL (≈ 0.42 µM)
IC70 [3]: 0.420 µg/mL (≈ 1.05 µM)
IC50 [4]: 0.808 µg/mL (≈ 2.02 µM)
IC70 [4]: 1.276 µg/mL (≈ 3.19 µM)
IC50 [5]: 0.126 µg/mL (≈ 0.315 µM)
IC70 [5]: 0.358 µg/mL (≈ 0.894 µM)
IC50 [6]: 0.498 µg/mL (≈ 1.24 µM)
IC70 [6]: 0.700 µg/mL (≈ 1.75 µM)
IC50 [7]: 0.272 µg/mL (≈ 0.679 µM)
IC70 [7]: 0.468 µg/mL (≈ 1.17 µM)
IC50 [8]: 0.782 µg/mL (≈ 1.95 µM)
IC70 [8]: 0.952 µg/mL (≈ 2.38 µM)
IC50 [9]: 0.173 µg/mL (≈ 0.432 µM)
IC70 [9]: 0.529 µg/mL (≈ 1.32 µM)
IC50 [10]: 0.468 µg/mL (≈ 1.17 µM)
IC70 [10]: 0.731 µg/mL (≈ 1.83 µM)
IC50 [11]: 0.974 µg/mL (≈ 2.43 µM)
IC70 [11]: 8.063 µg/mL (≈ 20.1 µM)
IC50 [12]: 0.182 µg/mL (≈ 0.455 µM)
IC70 [12]: 0.362 µg/mL (≈ 0.904 µM)
IC50 [13]: 0.606 µg/mL (≈ 1.51 µM)
IC70 [13]: 0.750 µg/mL (≈ 1.87 µM)
